We go through five molecules from US7446199B2, “Compositions useful as inhibitors of protein kinases” (Vertex Pharmaceuticals Incorporated, priority 2003, dated 2008).

The term Ki denotes the dissociation constant of the complex between target and ligand, obtained from inhibition or displacement.

What all share (format): biochemical
One assay has as its target T1, c-KIT (Homo sapiens, UniProt P10721).
T1 construct: 0.02% BSA and 25 nM c-KIT
Briefly: Inhibition of c-KIT, radiometric filter-binding assay. Conditions: 700 μM ATP, 0.5 mg/mL pE4Y, room temperature. As to the method: Compounds are screened for their ability to inhibit c-KIT activity using a radiometric filter-binding assay. This assay monitors the ^33P incorporation into a substrate poly(Glu, Tyr) 4:1 (pE4Y). Reactions are carried out in a solution containing 100 mM HEPES (pH 7.5), 10 mM MgCl2, 25 mM NaCl, 1 mM DTT, 0.01% BSA and 2.5% DMSO. Final substrate concentrations in the assay were 700 μM ATP and 0.5 mg/mL pE4Y (both from Sigma Chemicals, St Louis, Mo.). The final concentration of compounds is generally between 0.01 and 5 μM. Typically, a 12-point titration is conducted by preparing serial dilutions from 10 mM DMSO stock of test compound. Reactions were carried out at room temperature.
Two assay solutions are prepared. Solution 1 contains 100 mM HEPES (pH 7.5), 10 mM MgCl2, 25 mM NaCl, 1 mg/ml pE4Y and 1.4 mM ATP(containing 0.5 μCi of [γ-^33P]ATP for each reaction). Solution 2 contains 100 mM HEPES (pH 7.5), 10 mM MgCl2, 25 mM NaCl, 2 mM DTT, 0.02% BSA and 25 nM c-KIT. The assay is run on a 96 well plate by mixing 33 μL of Solution1 and 1.65 μL of the test compounds. The reaction is initiated with 33 μL of Solution2. After incubation for 20 minutes at room temperature, the reaction was stopped with 50 μL of 10% TCA containing 0.2 mM of ATP. All of the reaction volume is then transferred to a filter plate and washed with 5% TCA by a Harvester9600 from TOMTEC (Hamden, Conn.). The amount of ^33P incorporation into pE4y is analyzed by a Packard TopCount Microplate Scintillation Counter (Meriden, Conn.). The data is fitted using Prism software to get an IC50 or Ki.

In the next assay the target is T2, JAK3 (Homo sapiens, UniProt P52333).
T2 sequence (P52333 1-1124): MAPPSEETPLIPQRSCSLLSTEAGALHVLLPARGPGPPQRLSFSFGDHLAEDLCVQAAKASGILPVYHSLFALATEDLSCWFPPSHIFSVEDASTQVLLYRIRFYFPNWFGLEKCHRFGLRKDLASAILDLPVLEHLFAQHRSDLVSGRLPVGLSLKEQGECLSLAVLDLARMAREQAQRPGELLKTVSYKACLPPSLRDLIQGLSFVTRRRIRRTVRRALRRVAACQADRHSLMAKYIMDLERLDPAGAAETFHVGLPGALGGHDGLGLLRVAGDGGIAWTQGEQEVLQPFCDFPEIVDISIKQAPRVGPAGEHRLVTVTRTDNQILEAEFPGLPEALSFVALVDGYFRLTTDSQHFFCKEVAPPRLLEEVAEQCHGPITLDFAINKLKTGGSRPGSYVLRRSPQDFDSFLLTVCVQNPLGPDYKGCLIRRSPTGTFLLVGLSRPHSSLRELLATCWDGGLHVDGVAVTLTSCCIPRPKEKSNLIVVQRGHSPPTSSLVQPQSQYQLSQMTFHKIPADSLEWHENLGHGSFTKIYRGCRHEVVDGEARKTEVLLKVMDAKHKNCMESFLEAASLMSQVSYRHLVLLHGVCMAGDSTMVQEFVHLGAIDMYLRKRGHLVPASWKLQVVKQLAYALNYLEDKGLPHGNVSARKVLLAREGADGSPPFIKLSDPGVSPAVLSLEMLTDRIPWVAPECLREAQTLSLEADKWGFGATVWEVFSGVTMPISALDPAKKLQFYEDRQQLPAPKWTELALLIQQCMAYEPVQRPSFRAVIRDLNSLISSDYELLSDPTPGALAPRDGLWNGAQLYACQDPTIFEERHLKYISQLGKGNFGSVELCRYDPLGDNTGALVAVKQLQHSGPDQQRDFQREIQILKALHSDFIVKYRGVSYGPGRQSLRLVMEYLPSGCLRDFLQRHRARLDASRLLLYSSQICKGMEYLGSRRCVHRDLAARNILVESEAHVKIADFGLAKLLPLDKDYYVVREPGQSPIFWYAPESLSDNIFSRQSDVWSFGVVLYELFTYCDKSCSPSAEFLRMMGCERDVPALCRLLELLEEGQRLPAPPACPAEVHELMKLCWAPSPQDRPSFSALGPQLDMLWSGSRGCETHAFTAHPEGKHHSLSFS
Briefly: JAK3 inhibition assay (ELISA, Poly (Glu, Ala, Tyr) coated plates). The settings on record: 2 mM ATP, 60 minutes at 30° C. As for the experimental part: Compound inhibition of JAK3 was assayed by the method described by G. R. Brown, et al., Bioorg. Med. Chem. Lett. 2000, vol. 10, pp 575-579 in the following manner. Into Maxisorb plates, previously coated at 4° C. with Poly (Glu, Ala, Tyr) 6:3:1 then washed with phosphate buffered saline 0.05% and Tween (PBST), was added 2 mM ATP, 5 mM MgCl2, and a solution of compound in DMSO. The reaction was started with JAK enzyme and the plates incubated for 60 minutes at 30° C. The plates were then washed with PBST, […] HRP-Conjugated 4G10 antibody was added, and the plate incubated for 90 minutes at 30° C. The plate was again washed with PBST, […] TMB solution is added, and the plates were incubated for another 30 minutes at 30° C. Sulfuric acid ([…] of 1M) was added to stop the reaction and the plate is read at 450 nm to obtain the optical densities for analysis to determine IC50 values.
A general note: ELISA stands for enzyme-linked immunosorbent assay.

For another assay, the target named is c-Met (Homo sapiens, UniProt P08581). The assay is described as follows: Ki determination for the inhibition of c-Met, coupled enzyme system. Conditions: 200 μM ATP, 10 μM polyGluTyr, 80 nM c-Met, 30° C. As for the experimental part: Compounds were screened for their ability to inhibit c-Met kinase activity using a standard coupled enzyme system (Fox et al., Protein Sci. 1998, 7, 2249). Reactions were carried out in a solution containing 100 mM HEPES (pH 7.5), 10 mM MgCl2, 25 mM NaCl, 300 μM NADH, 1 mM DTT, and 1.5% DMSO. Final substrate concentrations in the assay were 200 μM ATP (Sigma Chemicals, St Louis, Mo.) and 10 μM polyGluTyr (Sigma Chemical Company, St. Louis). Reactions were carried out at 30° C. and 80 nM c-Met. Final concentrations of the components of the coupled enzyme system were 2.5 mM phosphoenolpyruvate, 300 μM NADH, 30 μg/ml pyruvate kinase and 10 μg/ml lactate dehydrogenase.
An assay stock buffer solution was prepared containing all of the reagents listed above with the exception of ATP and a test compound of the present invention. The assay stock buffer solution (175 μl) was incubated in a 96 well plate with 5 μl of the test compound of the present invention at final concentrations spanning 0.006 μM to 12.5 μM at 30° C. for 10 minutes. Typically, a 12-point titration was conducted by preparing serial dilutions (from 10 mM compound stocks) with DMSO of the test compounds of the present invention in daughter plates. The reaction was initiated by the addition of 20 μl of ATP (final concentration 200 μM). Rates of reaction were obtained using a Molecular Devices Spectramax plate reader (Sunnyvale, Calif.) over 10 minutes at 30° C. The Ki values were determined from the rate data as a function of inhibitor concentration.

In another assay the target is SYK (Homo sapiens, UniProt P43405). The assay is described as follows: SYK enzyme assay, coupled enzyme assay. Conditions: 200 μM ATP, 4 μM poly Gly-Tyr peptide, 30° C. As to the method:
Compounds were screened for their ability to inhibit SYK using a standard coupled enzyme assay (Fox et al., Protein Sci. 1998, 7, 2249). Reactions were carried out in 100 mM HEPES (pH 7.5), 10 mM MgCl2, 25 mM NaCl, 1 mM DTT and 1.5% DMSO. Final substrate concentrations in the assay were 200 μM ATP (Sigma chemical Co.) and 4 μM poly Gly-Tyr peptide (Sigma Chemical Co.). Assays were carried out at 30° C. and 200 nM SYK. Final concentrations of the components of the coupled enzyme system were 2.5 mM phosphoenolpyruvate, 300 μM NADH, 30 μg/ml pyruvate kinase and 10 μg/ml lactate dehydrogenase.
An assay stock buffer solution was prepared containing all of the reagents listed above, with the exception of SYK, DTT, and the test compound of interest of the present invention. 56 μl of the test reaction was placed in a 96 well plate followed by the addition of 1 μl of 2 mM DMSO stock containing the test compound of the present invnetion (final compound concentration 30 μM). The plate was pre-incubated for ˜10 minutes at 30° C. and the reaction initiated by the addition of 10 μl of enzyme (final concentration 25 nM). Rates of reaction were obtained using a BioRad Ultramark plate reader (Hercules, Calif.) over a 5 minute read time at 30° C., and Ki values for the compounds of the present invention were determined according to standard methods.

A further assay has as its target GSK-3β, (AA 1-420) (Homo sapiens, UniProt P49841). The assay is described as follows: GSK-3 inhibition assay, coupled enzyme system. Conditions: 20 μM ATP, 300 μM peptide, 20 nM GSK-3b, 30° C.; read-out: Ki values (GSK3). As for the experimental part: Compounds of the present invention were screened for their ability to inhibit GSK-3β, (AA 1-420) activity using a standard coupled enzyme system (Fox et al., Protein Sci. 1998, 7, 2249). Reactions were carried out in a solution containing 100 mM HEPES (pH 7.5), 10 mM MgCl2, 25 mM NaCl, 300 μM NADH, 1 mM DTT and 1.5% DMSO. Final substrate concentrations in the assay were 20 μM ATP (Sigma Chemicals, St Louis, Mo.) and 300 μM peptide (American Peptide, Sunnyvale, Calif.). Reactions were carried out at 30° C. and 20 nM GSK-3b. Final concentrations of the components of the coupled enzyme system were 2.5 mM phosphoenolpyruvate, 300 μM NADH, 30 μg/ml pyruvate kinase and 10 μg/ml lactate dehydrogenase.
An assay stock buffer solution was prepared containing all of the reagents listed above with the exception of ATP and the test compound of the present invention. The assay stock buffer solution (175 μl) was incubated in a 96 well plate with 5 μl of the test compound of the present invention at final concentrations spanning 0.002 μM to 30 μM at 30° C. for 10 min. Typically, a 12 point titration was conducted by preparing serial dilutions (from 10 mM compound stocks) with DMSO of the test compounds of the present invention in daughter plates. The reaction was initiated by the addition of 20 μl of ATP (final concentration 20 μM). Rates of reaction were obtained using a Molecular Devices Spectramax plate reader (Sunnyvale, Calif.) over 10 min at 30° C. The Ki values were determined from the rate data as a function of inhibitor concentration.

T1 sequence (P10721 26-976): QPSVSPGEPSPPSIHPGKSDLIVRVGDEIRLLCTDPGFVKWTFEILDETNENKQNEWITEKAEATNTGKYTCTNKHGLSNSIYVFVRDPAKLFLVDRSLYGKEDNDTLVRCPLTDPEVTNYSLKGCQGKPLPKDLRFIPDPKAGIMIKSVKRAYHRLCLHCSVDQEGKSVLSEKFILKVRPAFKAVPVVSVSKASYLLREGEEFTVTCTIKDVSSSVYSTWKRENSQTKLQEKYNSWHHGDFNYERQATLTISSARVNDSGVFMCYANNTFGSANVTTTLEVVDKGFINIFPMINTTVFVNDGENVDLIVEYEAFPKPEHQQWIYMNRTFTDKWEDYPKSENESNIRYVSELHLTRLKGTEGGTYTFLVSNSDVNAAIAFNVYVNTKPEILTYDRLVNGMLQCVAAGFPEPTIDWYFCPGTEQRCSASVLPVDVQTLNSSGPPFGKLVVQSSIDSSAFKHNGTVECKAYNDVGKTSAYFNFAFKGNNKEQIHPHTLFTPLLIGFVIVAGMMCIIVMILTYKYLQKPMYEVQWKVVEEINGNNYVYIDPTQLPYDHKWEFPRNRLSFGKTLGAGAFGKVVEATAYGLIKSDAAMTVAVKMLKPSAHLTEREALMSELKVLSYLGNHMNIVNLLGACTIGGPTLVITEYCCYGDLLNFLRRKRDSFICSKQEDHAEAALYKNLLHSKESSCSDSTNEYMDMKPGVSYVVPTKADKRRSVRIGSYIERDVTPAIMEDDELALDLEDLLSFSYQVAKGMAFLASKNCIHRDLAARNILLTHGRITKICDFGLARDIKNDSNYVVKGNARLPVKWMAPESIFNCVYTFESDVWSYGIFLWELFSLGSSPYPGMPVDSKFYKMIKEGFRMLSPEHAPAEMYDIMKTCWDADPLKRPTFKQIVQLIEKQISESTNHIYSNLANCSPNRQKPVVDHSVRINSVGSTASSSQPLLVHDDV
Sequence of c-Met (P08581 25-1390): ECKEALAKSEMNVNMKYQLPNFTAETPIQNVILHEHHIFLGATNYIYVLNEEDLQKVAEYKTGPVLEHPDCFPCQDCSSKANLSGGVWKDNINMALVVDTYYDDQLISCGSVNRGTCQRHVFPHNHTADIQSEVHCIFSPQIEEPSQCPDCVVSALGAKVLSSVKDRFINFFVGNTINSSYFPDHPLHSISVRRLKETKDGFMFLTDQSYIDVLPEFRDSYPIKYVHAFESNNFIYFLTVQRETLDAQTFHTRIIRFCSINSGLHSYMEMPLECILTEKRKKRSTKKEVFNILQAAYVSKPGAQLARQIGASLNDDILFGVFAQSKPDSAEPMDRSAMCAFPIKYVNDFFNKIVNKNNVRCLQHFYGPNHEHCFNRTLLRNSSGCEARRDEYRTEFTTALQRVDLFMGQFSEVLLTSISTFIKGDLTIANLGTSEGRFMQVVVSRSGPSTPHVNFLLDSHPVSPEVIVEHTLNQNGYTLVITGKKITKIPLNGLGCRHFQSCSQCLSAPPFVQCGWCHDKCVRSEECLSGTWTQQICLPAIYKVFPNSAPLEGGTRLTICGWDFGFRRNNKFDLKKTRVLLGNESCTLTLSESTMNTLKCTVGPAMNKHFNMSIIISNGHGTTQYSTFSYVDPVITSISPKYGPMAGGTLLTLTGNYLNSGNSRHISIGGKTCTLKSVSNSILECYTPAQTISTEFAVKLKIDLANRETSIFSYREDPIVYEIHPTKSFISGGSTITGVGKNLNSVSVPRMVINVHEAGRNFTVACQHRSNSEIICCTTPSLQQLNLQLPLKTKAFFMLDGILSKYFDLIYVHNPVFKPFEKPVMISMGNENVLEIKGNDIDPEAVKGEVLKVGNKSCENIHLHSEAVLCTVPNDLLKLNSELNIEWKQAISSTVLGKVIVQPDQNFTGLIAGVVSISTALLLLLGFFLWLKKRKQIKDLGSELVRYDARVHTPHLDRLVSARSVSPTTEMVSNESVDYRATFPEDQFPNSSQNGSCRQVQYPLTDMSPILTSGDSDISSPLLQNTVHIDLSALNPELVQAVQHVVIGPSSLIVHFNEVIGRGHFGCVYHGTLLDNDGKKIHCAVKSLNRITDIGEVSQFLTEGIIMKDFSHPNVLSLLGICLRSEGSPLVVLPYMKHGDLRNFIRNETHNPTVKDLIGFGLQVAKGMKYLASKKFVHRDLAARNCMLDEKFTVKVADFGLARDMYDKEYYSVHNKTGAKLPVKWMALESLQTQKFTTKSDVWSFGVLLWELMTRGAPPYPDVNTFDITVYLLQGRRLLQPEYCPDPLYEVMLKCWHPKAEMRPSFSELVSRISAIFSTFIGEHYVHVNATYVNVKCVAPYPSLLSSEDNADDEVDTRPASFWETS
Sequence of GSK-3β, (AA 1-420) (P49841 whole entry, the tested form may be a part): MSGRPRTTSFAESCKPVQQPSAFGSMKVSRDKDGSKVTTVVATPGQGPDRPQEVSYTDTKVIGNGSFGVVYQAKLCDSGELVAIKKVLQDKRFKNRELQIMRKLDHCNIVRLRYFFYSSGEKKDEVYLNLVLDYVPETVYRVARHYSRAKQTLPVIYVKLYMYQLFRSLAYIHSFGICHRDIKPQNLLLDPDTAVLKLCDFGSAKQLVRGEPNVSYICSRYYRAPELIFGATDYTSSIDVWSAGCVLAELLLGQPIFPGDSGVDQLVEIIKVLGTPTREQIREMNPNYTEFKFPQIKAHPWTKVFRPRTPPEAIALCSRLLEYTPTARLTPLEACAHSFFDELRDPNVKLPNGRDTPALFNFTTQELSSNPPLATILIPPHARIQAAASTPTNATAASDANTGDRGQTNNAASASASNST

As to `CN(C)c1ccc(-c2cnc3[nH]cc(-c4nncn4-c4cccc(F)c4F)c3c2)cc1N` [Compound 130, 4-{3-[4-(2,3-Difluoro-phenyl)-4H-[1,2,4]triazol-3-yl]-1H-pyrrolo[2,3-b]pyridin-5-yl}-N^1,N^1-dimethyl-benzene-1,2-diamine], the Ki at c-KIT is under 200 nM; at JAK3, 200 to 1000 nM; on c-Met, under 200 nM.

With `Fc1cccc(-c2cnoc2-c2c[nH]c3ccccc23)c1F` [Compound 29, 3-[4-(2,3-Difluoro-phenyl)-isoxazol-5-yl]-1H-indole], the Ki is 1 to 12.5 µM at SYK; 1 to 12.5 µM on GSK-3β, (AA 1-420); 1000 to 12500 nM on c-Met.

As for `CN1CCN(c2ccc(-c3cnc4[nH]cc(-c5nncn5-c5cccc(F)c5F)c4c3)cc2N)CC1` [Compound 129, 5-{3-[4-(2,3-Difluoro-phenyl)-4H-[1,2,4]triazol-3-yl]-1H-pyrrolo[2,3-b]pyridin-5-yl}-2-(4-methyl-piperazin-1-yl)-phenylamine], the inhibition constant (Ki) on c-KIT was under 200 nM; on JAK3 it was 200 to 1000 nM; on c-Met, under 200 nM.

As for `Fc1cccc(-n2cnnc2-c2c[nH]c3ncc(-c4ccc(N5CCOCC5)nc4)cc23)c1F` [Compound 121, 3-[4-(2,3-Difluoro-phenyl)-4H-[1,2,4]triazol-3-yl]-5-(6-morpholin-4-yl-pyridin-3-yl)-1H-pyrrolo[2,3-b]pyridine], the Ki was 200 to 1000 nM on c-KIT, 1000 to 12500 nM on JAK3 and under 200 nM on c-Met.

`Fc1cccc(-n2cnnc2-c2c[nH]c3ncc(-c4ccc(N5CCC(N6CCCC6)CC5)nc4)cc23)c1F` [Compound 123, 5′-{3-[4-(2,3-Difluoro-phenyl)-4H-[1,2,4]triazol-3-yl]-1H-pyrrolo[2,3-b]pyridin-5-yl}-4-pyrrolidin-1-yl-3,4,5,6-tetrahydro-2H-[1,2′]bipyridinyl]: the Ki is 200 to 1000 nM at c-KIT, 1000 to 12500 nM on JAK3 and under 200 nM on c-Met.
